{"source": "patent US20240342227A1", "about": "“COMBINATION OF E. FAECALIS AND AN ANTI-INFLAMMATORY AGENT AND USES THEREOF IN THE PREVENTION AND/OR TREATMENT OF RESPIRATORY DISEASES” (INSTITUT NATIONAL DE RECHERCHE POUR L'AGRICULTURE, …, priority 2021, published 2024)", "test_system": "BEAS-2B cells", "test": "IL-8 release induced by TNF-α on BEAS-2B cells (ELISA on supernatant after 6 h)", "type": "cell-based, human", "method": "BEAS-2B cells were co-incubated with TNF-α (1 pg/mL) alone or with different doses of budesonide (1.5; 0.75; 0.5; 0.1 nM). After 6 hours of incubation, the IL-8 concentration was measured in the supernatant. IL-8 levels are expressed as a percentage of the IL-8 level induced by stimulation with TNF-α for 6 hours. The results correspond to the mean+SEM for at least 3 experiments, n=6-12 technical replicates. *p<0.05 and ***p<0.001 compared with the TNF-α control group.\nBEAS-2B cells were co-incubated with TNF-α (1 pg/mL) alone or with a strain of E. faecalis (CNCM I-4969; I-5701; I-5699) MOI 10:1, and/or 0.1 nM of budesonide, or 0.5 nM of budesonide. After 6 hours of incubation, the IL-8 concentration was measured in the supernatant by ELISA. IL-8 levels are expressed as a percentage of the IL-8 level induced by stimulation with TNF-α for 6 hours. The results correspond to the median of 3 experiments, n=9 technical replicates. *p<0.05 and ***p<0.001 compared with the TNF-α control group, by a Kruskal-Wallis non-parametric test followed by Dunn's post-test.\nHuman bronchial cells (BEAS-2B) are cultured and a pro-inflammatory situation is induced via the addition of TNF-α to the medium. The BEAS-2B cells then respond by releasing IL-8 into the medium. The IL-8 assay after 6 hours is used to estimate the activation state of the cells, which can be reduced by adding an anti-inflammatory agent.", "note": "“Also recorded” adds a separate entry of the source.", "data": [{"compound": "CCCC1O[C@@H]2C[C@H]3[C@@H]4CCC5=CC(=O)C=C[C@]5(C)[C@H]4[C@@H](O)C[C@]3(C)[C@]2(C(=O)CO)O1", "note": "(stereo partly drawn) [budesonide]", "values": [{"measurement": "inhibition at 0.0005 µM", "setting": "Homo sapiens, BEAS-2B, budesonide alone at 5-times higher dose (0.5 nM), TNF-α-stimulated BEAS-2B", "result": 50, "unit": "%"}, {"measurement": "inhibition of IL-8 release", "setting": "budesonide alone at 5-times higher dose (0.5 nM), TNF-α-stimulated BEAS-2B, 0.0005 µM", "result": 55, "unit": "%"}, {"measurement": "effect on the release of IL-8 induced by TNF-α", "setting": "budesonide alone, 0.1 nM, BEAS-2B", "result": "do not have any effect; also recorded: no effect"}]}]}
